The results in this text go back to patent US20260201008A1, “SECRETIN-DERIVED GLP1R SELECTIVE AGONISTS” (GUBRA A/S, priority 2023, published 2026).

Molecules are shown by their SMILES. Numbered stars: 1 amine (or outer) side, 2 acyl side, 3 side chain; on linkers, the order of the positions; unused ones are H or OH. Square brackets hold non-standard residues; d marks the D form. Side chains are listed from the residue outwards. Peptide text beside a SMILES is read from it. * marks the point of attachment. C20 diacid = O=C(O)CCCCCCCCCCCCCCCCCCC(=O)*; γGlu = O=C(O)[C@H](CCC(=O)[*:2])N[*:1]; AEEA = NCCOCCOCC(=O)O; Aib = CC(C)(N)C(=O)O

One data set addresses GLP1R (Homo sapiens, UniProt P43220). Nature of the data set: hGLP1R potency, cAMP accumulation in CHO-K1 cells stably overexpressing hGLP1R. It is filed as cell-based. The arrangement: host or cells: CHO-K1. The following applies: for Selectivity: SCTR EC50/GLP1R EC50 ratio; for EC50: cAMP accumulation, CHO-K1 cells overexpressing hGLP1R, read-out: pEC50 hGLPR1 (converted). In outline:
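2000 cells/well, DPBS + 0.05% casein + 0.5 mM IBMX; 30 min RT stimulation; HTRF cAMP detection after 1 h. Purified: 3-fold ×11, n=2; crude: 10-fold ×5, n=1. EC50 by variable-slope fit.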

The target in the next data set is SCTR (Homo sapiens, UniProt P47872). Nature of the data set: hSCTR potency, cAMP accumulation in CHO-K1 cells stably overexpressing hSCTR. The format is cell-based. The arrangement: alternatively Euroscreen ES-712-AF; FAST-0161L; host or cells: CHO-K1. The conditions noted are these: cAMP accumulation, CHO-K1 cells overexpressing hSCTR; read-out: pEC50 hSCTR (converted). In outline: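 Thawed CHO-K1 cells carrying stable hSCTR are plated into casein/IBMX buffer (0.05%, 0.5 mM), dosed immediately for 30 min at room temperature, then cAMP is detected by TR-FRET. Purified peptides run as 11 three-fold dilutions in duplicate, and curves are fitted with variable slope.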
Sequence of SCTR (P47872 23-440): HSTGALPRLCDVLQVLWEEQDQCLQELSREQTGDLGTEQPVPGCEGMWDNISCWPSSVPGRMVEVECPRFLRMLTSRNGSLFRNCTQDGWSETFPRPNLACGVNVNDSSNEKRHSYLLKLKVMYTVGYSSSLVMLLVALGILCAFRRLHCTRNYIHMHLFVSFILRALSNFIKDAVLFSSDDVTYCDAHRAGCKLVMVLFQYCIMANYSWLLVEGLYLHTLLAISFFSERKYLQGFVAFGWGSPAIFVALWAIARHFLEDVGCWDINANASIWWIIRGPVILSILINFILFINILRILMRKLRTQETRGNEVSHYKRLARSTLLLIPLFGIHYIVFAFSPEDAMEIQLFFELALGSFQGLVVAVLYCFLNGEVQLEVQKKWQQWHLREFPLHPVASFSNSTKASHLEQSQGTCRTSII
For orientation: Cyclic AMP is a second messenger, typically raised through Gs and lowered through Gi signalling.

Data set [1] in a line: Turbidity of crude library peptides (absorbance at 600 nm). The format is physicochemical. The conditions noted are these: Physical stability of peptides. In outline: (§1)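 Turbidity is the absorbance at 600 nm, taken before heating. Fibril signal is the mean ThT emission at 480 nm (450 nm excitation), read every 10 min over 72 h at 40° C with 700 rpm shaking between reads. Peptides at 267 μM, pH 4.0 acetate or pH 7.0 phosphate buffer (50 mM), 4 μM ThT final.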

The nature of data set [2]: Fibril formation of crude library peptides (Thioflavin T). More on the design: key: average ThT fluorescence emission at 480 nm (ex 450 nm), raw units. The following applies: Physical stability of peptides. It is filed as physicochemical. The gist of the method: as §1

Sequence of GLP1R (P43220 24-463): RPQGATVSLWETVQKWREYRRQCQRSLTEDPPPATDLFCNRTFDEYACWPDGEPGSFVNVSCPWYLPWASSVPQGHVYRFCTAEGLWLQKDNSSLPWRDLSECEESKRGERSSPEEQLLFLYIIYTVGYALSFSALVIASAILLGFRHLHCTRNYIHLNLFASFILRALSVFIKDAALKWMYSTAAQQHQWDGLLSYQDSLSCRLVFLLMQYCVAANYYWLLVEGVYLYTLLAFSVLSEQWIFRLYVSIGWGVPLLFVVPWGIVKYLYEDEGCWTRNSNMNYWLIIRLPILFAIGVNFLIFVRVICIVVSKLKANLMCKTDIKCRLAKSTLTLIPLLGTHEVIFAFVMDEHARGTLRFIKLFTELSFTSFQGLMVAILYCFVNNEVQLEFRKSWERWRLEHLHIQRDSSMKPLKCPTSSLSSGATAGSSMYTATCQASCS

On to `CC(C)C[C@H](NC(=O)[C@H](Cc1ccccc1)NC(=O)[C@H](CCCNC(=N)N)NC(=O)[C@H](CCC(N)=O)NC(=O)[C@H](CCC(N)=O)NC(=O)[C@H](C)NC(=O)[C@H](C)NC(=O)[C@@H](NC(=O)[C@H](CCC(=O)O)NC(=O)[C@H](CCCCNC(=O)COCCOCCNC(=O)COCCOCCNC(=O)CC[C@H](NC(=O)CCCCCCCCCCCCCCCCCCC(=O)O)C(=O)O)NC(=O)[C@H](CC(C)C)NC(=O)[C@H](CCCNC(=N)N)NC(=O)[C@H](CO)NC(=O)[C@@H](NC(=O)[C@H](CC(=O)O)NC(=O)[C@H](CO)NC(=O)[C@@H](NC(=O)[C@H](Cc1ccccc1)NC(=O)[C@@H](NC(=O)CNC(=O)[C@H](CCC(=O)O)NC(=O)C(C)(C)NC(=O)[C@@H](N)Cc1c[nH]cn1)[C@@H](C)O)[C@@H](C)O)C(C)C)[C@@H](C)O)C(=O)N[C@@H](CCC(=O)O)C(=O)N[C@@H](Cc1c[nH]cn1)C(=O)N[C@@H](CC(C)C)C(=O)N[C@H](C(N)=O)C(C)C` [compound 21] (H-H[Aib]EGTFTSDVSRLK([AEEA-AEEA-γGlu-C20 diacid])ETAAQQRFLEHLV-NH2), for which, at GLP1R, the Selectivity was found to be 17906 and the EC50 is 0.0126 nM. The EC50 on SCTR was 200 nM. Further, the “Turbidity (pH 7)” value in data set [1] was 0.08. The Fibril formation in data set [2] is given as 193729.

Regarding `CC(C)C[C@H](NC(=O)[C@H](Cc1ccccc1)NC(=O)[C@H](CCCNC(=N)N)NC(=O)[C@H](CCC(N)=O)NC(=O)[C@H](CCC(=O)O)NC(=O)[C@H](C)NC(=O)[C@H](C)NC(=O)[C@H](CCC(=O)O)NC(=O)[C@H](CCC(=O)O)NC(=O)[C@H](CCCCNC(=O)COCCOCCNC(=O)COCCOCCNC(=O)CC[C@H](NC(=O)CCCCCCCCCCCCCCCCCCC(=O)O)C(=O)O)NC(=O)[C@H](CC(C)C)NC(=O)[C@H](CCCNC(=N)N)NC(=O)[C@H](CO)NC(=O)[C@@H](NC(=O)[C@H](CC(=O)O)NC(=O)[C@H](CO)NC(=O)[C@@H](NC(=O)[C@H](Cc1ccccc1)NC(=O)[C@@H](NC(=O)CNC(=O)[C@H](CCC(=O)O)NC(=O)C(C)(C)NC(=O)[C@@H](N)Cc1c[nH]cn1)[C@@H](C)O)[C@@H](C)O)C(C)C)C(=O)N[C@@H](CCC(=O)O)C(=O)N[C@@H](Cc1c[nH]cn1)C(=O)N[C@@H](CC(C)C)C(=O)N[C@H](C(N)=O)C(C)C` [compound 22] (H-H[Aib]EGTFTSDVSRLK([AEEA-AEEA-γGlu-C20 diacid])EEAAEQRFLEHLV-NH2), at GLP1R, the Selectivity is on record as 20678 and the EC50 was 0.02 nM. Also, the EC50 on SCTR is 398 nM. Besides, the “Turbidity (pH 7)” value in data set [1] came to 0.08. Besides, the Fibril formation in data set [2] was found to be 16453.

For `CC(C)C[C@H](NC(=O)[C@H](Cc1ccccc1)NC(=O)[C@H](CCCNC(=N)N)NC(=O)[C@H](CCC(N)=O)NC(=O)[C@H](C)NC(=O)[C@H](C)NC(=O)[C@H](C)NC(=O)[C@@H](NC(=O)[C@H](CCC(=O)O)NC(=O)[C@H](CCCCNC(=O)COCCOCCNC(=O)COCCOCCNC(=O)CC[C@H](NC(=O)CCCCCCCCCCCCCCCCCCC(=O)O)C(=O)O)NC(=O)[C@H](CC(C)C)NC(=O)[C@H](CCCNC(=N)N)NC(=O)[C@H](CO)NC(=O)[C@@H](NC(=O)[C@H](CC(=O)O)NC(=O)[C@H](CO)NC(=O)[C@@H](NC(=O)[C@H](Cc1ccccc1)NC(=O)[C@@H](NC(=O)CNC(=O)[C@H](CCC(=O)O)NC(=O)C(C)(C)NC(=O)[C@@H](N)Cc1c[nH]cn1)[C@@H](C)O)[C@@H](C)O)C(C)C)[C@@H](C)O)C(=O)N[C@@H](CCC(=O)O)C(=O)N[C@@H](Cc1c[nH]cn1)C(=O)N[C@@H](CC(C)C)C(=O)N[C@H](C(N)=O)C(C)C` [compound 23] (H-H[Aib]EGTFTSDVSRLK([AEEA-AEEA-γGlu-C20 diacid])ETAAAQRFLEHLV-NH2), the Selectivity at GLP1R came to 8143. The EC50 on GLP1R is 0.02 nM; on SCTR it was 158 nM. Also, the “Turbidity (pH 7)” value in data set [1] stood at 0.08. The Fibril formation in data set [2] stood at 7462.
